Like-named read-outs stand apart in the source and are kept apart here. Blank lines part the entries; values can stand above or below the molecule they belong to.
Legend:
[1] = biological target: T1, RIPK1 (Homo sapiens, UniProt Q13546); test: biochemical; parameters: DiscoveRx KINOMEscan active site-directed competition binding; percent of control kinase bound to immobilised ligand
T1 sequence (Q13546 1-671): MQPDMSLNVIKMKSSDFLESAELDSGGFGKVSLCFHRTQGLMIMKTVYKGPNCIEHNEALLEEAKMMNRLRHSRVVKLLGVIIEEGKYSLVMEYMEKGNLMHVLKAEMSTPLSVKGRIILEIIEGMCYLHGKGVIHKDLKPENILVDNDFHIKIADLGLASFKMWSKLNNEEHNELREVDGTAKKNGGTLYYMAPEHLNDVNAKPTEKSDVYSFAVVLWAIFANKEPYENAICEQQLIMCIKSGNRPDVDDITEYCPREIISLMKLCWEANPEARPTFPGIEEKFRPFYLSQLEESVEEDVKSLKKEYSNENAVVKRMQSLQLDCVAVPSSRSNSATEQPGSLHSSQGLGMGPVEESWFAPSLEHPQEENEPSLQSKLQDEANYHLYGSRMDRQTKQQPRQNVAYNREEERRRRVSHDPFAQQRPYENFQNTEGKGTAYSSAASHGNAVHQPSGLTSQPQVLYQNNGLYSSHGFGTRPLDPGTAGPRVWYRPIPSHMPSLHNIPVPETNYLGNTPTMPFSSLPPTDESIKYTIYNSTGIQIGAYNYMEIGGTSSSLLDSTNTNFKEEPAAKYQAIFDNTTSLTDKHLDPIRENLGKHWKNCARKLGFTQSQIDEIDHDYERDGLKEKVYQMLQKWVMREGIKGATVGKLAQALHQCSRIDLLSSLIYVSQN

[2] = biological target: T2, GAK (Homo sapiens, UniProt O14976); test: biochemical; parameters: DiscoveRx KINOMEscan active site-directed competition binding; percent of control kinase bound to immobilised ligand
T2 sequence (O14976 1-1311): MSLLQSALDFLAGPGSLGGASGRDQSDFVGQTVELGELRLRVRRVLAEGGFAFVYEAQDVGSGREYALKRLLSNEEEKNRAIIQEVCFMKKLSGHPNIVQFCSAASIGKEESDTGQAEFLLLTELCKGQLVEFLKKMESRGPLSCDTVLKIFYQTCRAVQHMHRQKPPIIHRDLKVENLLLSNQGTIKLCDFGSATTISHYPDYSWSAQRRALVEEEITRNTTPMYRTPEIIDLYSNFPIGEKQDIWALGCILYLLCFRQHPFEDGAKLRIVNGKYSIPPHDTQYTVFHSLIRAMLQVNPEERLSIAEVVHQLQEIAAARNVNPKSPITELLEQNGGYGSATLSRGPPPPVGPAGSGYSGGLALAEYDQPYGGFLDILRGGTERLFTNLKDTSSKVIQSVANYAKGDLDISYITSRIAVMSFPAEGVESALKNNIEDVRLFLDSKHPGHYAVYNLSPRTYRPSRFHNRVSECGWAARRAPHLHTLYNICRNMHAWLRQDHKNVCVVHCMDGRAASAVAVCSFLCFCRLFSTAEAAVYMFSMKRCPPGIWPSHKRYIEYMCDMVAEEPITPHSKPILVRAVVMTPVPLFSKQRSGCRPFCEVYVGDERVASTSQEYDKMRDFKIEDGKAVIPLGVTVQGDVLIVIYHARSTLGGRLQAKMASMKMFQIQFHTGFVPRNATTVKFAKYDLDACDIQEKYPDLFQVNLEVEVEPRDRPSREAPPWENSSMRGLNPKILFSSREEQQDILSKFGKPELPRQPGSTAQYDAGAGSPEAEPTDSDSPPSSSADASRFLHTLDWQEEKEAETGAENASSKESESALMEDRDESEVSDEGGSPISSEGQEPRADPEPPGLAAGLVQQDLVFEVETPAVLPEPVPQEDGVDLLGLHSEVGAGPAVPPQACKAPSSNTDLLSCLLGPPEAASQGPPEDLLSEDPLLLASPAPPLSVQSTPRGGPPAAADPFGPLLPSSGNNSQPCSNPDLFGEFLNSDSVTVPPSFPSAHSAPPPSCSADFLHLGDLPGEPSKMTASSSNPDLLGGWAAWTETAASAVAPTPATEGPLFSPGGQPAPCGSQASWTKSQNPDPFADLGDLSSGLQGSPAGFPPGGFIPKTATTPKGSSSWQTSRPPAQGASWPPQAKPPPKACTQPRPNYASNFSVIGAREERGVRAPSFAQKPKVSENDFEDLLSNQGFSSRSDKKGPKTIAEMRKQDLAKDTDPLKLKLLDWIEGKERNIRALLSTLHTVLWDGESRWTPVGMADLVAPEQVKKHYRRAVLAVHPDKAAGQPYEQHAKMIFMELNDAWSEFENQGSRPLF

[3] = read-out: Olaparib / %Ctrl @ 10000nM
[4] = read-out: Talazoparib (BMN 673) / %Ctrl @ 10000nM
[5] = read-out: Rucaparib / %Ctrl @ 10000nM, binding competition, % of control
[6] = read-out: Niraparib (MK-4827) / %Ctrl @ 10000nM

percent of control binding at 10 µM [1, 3]: 100%
percent of control binding at 10 µM [2, 3]: 100%
Compound: O=C(c1cc(Cc2n[nH]c(=O)c3ccccc23)ccc1F)N1CCN(C(=O)C2CC2)CC1 [Olaparib]

percent of control binding at 10 µM [1, 4]: 99%
percent of control binding at 10 µM [2, 4]: 100%
Compound: Cn1ncnc1[C@H]1c2n[nH]c(=O)c3cc(F)cc(c23)N[C@@H]1c1ccc(F)cc1 [Talazoparib]

percent of control binding at 10 µM [1, 5]: 99%
percent of control binding at 10 µM [2, 5]: 35%
Compound: CNCc1ccc(-c2[nH]c3cc(F)cc4c3c2CCNC4=O)cc1 [Rucaparib]

Compound: NC(=O)c1cccc2cn(-c3ccc([C@@H]4CCCNC4)cc3)nc12 [Niraparib]
percent of control binding at 10 µM [1, 6]: 91%
percent of control binding at 10 µM [2, 6]: 58%
